Key:
HeLa cells [1] = assay: Naphthol blue black (NBB) staining assay, HeLa; format: cell-based, human; conditions: 72 h incubation, read-out: Anti-proliferative activities towards HeLa cells (NBB staining assay)
Protocol: MTT assay Cancer cells (cell density = 4000-6000 cells/100µL) were seeded in a 96-well, flat-bottomed microtitre plate in growth medium (100 µL) and incubated at 37 °C under a 5% CO2 atmosphere for 24 h. Different concentrations of complexes were added and the plates were incubated for 72 h. […]
Naphthol blue black (NBB) staining assay After a total incubation time of 72 h, the medium was removed and a mixture of 50 µL of formaldehyde (3% in PBS) and 50 µL of NBB solution (0.05% NBB, 0.1 M sodium acetate, 9% acetic acid) was added. After further 30 min incubation, the mixture was removed and each well was washed with deionized water for 3 times. The plates were air-dried and 100 µL of NaOH (50 mg/mL) was added to solubilize the NBB-stained cells. The plates were […]
shaken for 1 h. […]

HeLa cells [2] = assay: Sustained cytotoxicity in Transwell plates (MTT), HeLa in lower chamber; format: cell-based, human; conditions: upper chamber loaded for 1 h, total 72 h
Protocol: The sustained cytotoxicity of 1a-hydrogel towards HeLa cells was tested in double-chambered Transwell® 24-well plates (Fig. 8a). The plate has a semi-permeable membrane to separate the HeLa cells (lower chamber) from direct contact with hydrogel (upper chamber). After treatment of HeLa cells with 1a-hydrogel (100 μM) at different time intervals, the upper chambers were removed and the HeLa cells were further incubated in the absence of the hydrogel. After a total of 72 h, the cell survival percentage was quantified by MTT assay. […] Therefore, an acidic environment can stimulate a faster release of 1a from 1a-hydrogel resulting in a more rapid cytotoxic effect. As the microenvironment of tumor tissues is often acidic compared to that of normal tissues,[20]1a-hydrogel could potentially achieve selective cytotoxicity towards tumor cells under in vivo conditions. […]
(§1) orifice, stored in pre-cooled Hank’s Balanced Solution (HBSS), and then cut with small scissor into about 2-3 mm3. The specimens were then digested with 0.5% collagenase IV at 37 °C for 15 min, filtered through sterile 100 mesh filter screen. […]
(§2) MTT assay Cancer cells (cell density = 4000-6000 cells/100µL) were seeded in a 96-well, flat-bottomed microtitre plate in growth medium (100 µL) and incubated at 37 °C under a 5% CO2 atmosphere for 24 h. […] After further in dark at 37 °C overnight, the percentage of survival cells were determined with a microtitre plate reader at 590 nm.
Naphthol blue black (NBB) staining assay After a total incubation time of 72 h, the medium was removed and a mixture of 50 µL of formaldehyde (3% in PBS) and 50 µL of NBB solution (0.05% NBB, 0.1 M sodium acetate, 9% acetic acid) was added. […] The percentage of survival cells was determined with a microtitre plate […]
and 72 h). […] After further in dark at 37 °C overnight, the percentage of survival cells were determined with a microtitre plate reader at 590 nm. […]

HeLa = assay: MTT cytotoxicity assay, HeLa; format: cell-based, human; conditions: 72 h treatment
Protocol: (§3) We then tested whether accumulation of platinum(II) complexes in lysosomes was associated with an increase in lysosomal membrane permeability (LMP). […] The cells were then treated with 1a or 2 at different concentrations.[17] […] Induction of LMP is a known cell death mechanism.[19] Therefore, we examined the cytotoxicity of the platinum(II) complexes towards different cancer cells by means of MTT (3-(4,5-dimethyl-2-thiazolyl)-2,5-diphenyltetrazolium bromide) (Table 1) and naphthol blue black (NBB) staining (Table S4 ^†) assays. […]
(§4) MTT assay Cancer cells (cell density = 4000-6000 cells/100µL) were seeded in a 96-well, flat-bottomed microtitre plate in growth medium (100 µL) and incubated at 37 °C under a 5% CO2 atmosphere for 24 h. Different concentrations of complexes were added and the plates were incubated for 72 h. After a total incubation time of 72 h, MTT in PBS solution (5 mg/mL, 10 µL) was added to each well. The plates were incubated at 37 °C under a 5% CO2 atmosphere for another 4 h, followed by adding 100 µL of sodium dodecyl sulfate (SDS, 10%) in diluted hydrochloric acid to each well. After further in dark at 37 °C overnight, the percentage of survival cells were determined with a microtitre plate reader at 590 nm. […]

breast cancer (MDA) = assay: MTT cytotoxicity assay, MDA; format: cell-based; conditions: 72 h treatment
Protocol: as §3, §4

[3] = test system: ovarian carcinoma (A2780); assay: MTT cytotoxicity assay, A2780; format: cell-based; conditions: 72 h treatment
Protocol: as §3, §4

[4] = test system: nasopharyngeal carcinoma (SUNE1); assay: MTT cytotoxicity assay, SUNE1; format: cell-based; conditions: 72 h treatment
Protocol: as §3, §4

B16 melanoma = assay: MTT cytotoxicity assay, B16; format: cell-based; conditions: 72 h treatment
Protocol: as §3, §4

[5] = test system: hepatocellular carcinoma cells (HepG2); assay: MTT cytotoxicity assay, HepG2; format: cell-based; conditions: 72 h treatment
Protocol: as §3, §4

[6] = test system: non-tumorigenic immortalized liver cells (MIHA); assay: MTT cytotoxicity assay, MIHA; format: cell-based; conditions: 72 h treatment
Protocol: as §3, §4

[7] = test system: primary bladder cancer cells; assay: MTT assay on primary bladder cancer cells; format: cell-based, human; conditions: 72 h incubation, read-out: Cytotoxic IC50, primary bladder cancer cells
Protocol: as §1, with “screen. The cells were collected by centrifugation at 700 g for 5 min, and then re-suspended in DMEM culture medium supplemented with penicillin (100 units/ml), streptomycin (100 μg/ml) and fungazone (0.25 μg/ml) at 37 °C in 95% air, 5% CO2, and cultured in” for “screen.”
The medium was replaced continuously every day. The interstitial cells were removed from the primary bladder cancer cells by trypsinization with 10-times diluted enzyme. The cells were used for drug screening when the confluence reached about 70%-80%. […]
as §2
Naphthol blue black (NBB) staining assay After a total incubation time of 72 h, the medium was removed and a mixture of 50 µL of formaldehyde (3% in PBS) and 50 µL of NBB solution (0.05% NBB, 0.1 M sodium acetate, 9% acetic acid) was added. […] The percentage of survival cells was determined with a microtitre plate

HeLa cells [8] = assay: Soft agar colony formation assay; format: cell-based, human; conditions: 2 μM, 7 day
Protocol: HeLa cells (0.07 × 106) were seeded with 600 µL cultured medium in the lower chambers of the double-decked Transwell® 24-well plates and incubated at 37 °C under a 5% CO2 atmosphere for 24 h. A uniform scratch was introduced on each well using a […] and the images of the scratches were recorded (0 h).
Berberine@1a-hydrogel and 1a-hydrogel in 100 µL medium was separately introduced to the upper chamber. The upper chambers were detached from the lower chamber after 4 h or 8 h incubation time. The images of the scratches were captured after 24 h incubation time.
Soft agar colony formation assay
HeLa cells (1.5 × 105) were mixed with solvent control or 1a (2 µM) in 2 mL medium with 0.35% soft agar per well in a 6-well plate coated with medium with 0.7% soft agar. 1 mL medium containing solvent control or 1a (2 µM) was added to the soft agar after the soft agar was solidified. The imaging was captured after incubating the plate at 37 °C under a 5% CO2 atmosphere for 7 day.

HeLa cells [9] = assay: Lysosomal membrane permeability by acridine orange staining; format: cell-based, human; conditions: 5 or 10 μM, 30 min, 37 °C
[10] = pH 7.4, 1a-hydrogel and cisplatin 100 μM

Compound | IC50 (HeLa cells [1]) | Cell survival (HeLa cells [2]; pH 6.0, 100 μM) | Cell survival (HeLa cells [2]; [10]) | IC50 (HeLa) | IC50 (breast cancer (MDA)) | IC50 [3] | IC50 [4] | IC50 (B16 melanoma) | IC50 [5] | IC50 [6] | IC50 [7] | Anchorage-independent colony formation (HeLa cells [8]) | Lysosomal membrane permeability (red fluorescence of acridine orange) (HeLa cells [9])
N.N.[Cl][Pt][Cl] [Cisplatin] | 4.29 ± 0.36 µM | ~20% | ~20% | – | – | – | – | – | – | – | – | – | –
Cc1cccc(C)c1[N+]#[C][Pt-2]12[c]3ccccc3-c3cccc([n+]31)-c1cc[nH][n+]12.[Cl-] (centres unmarked) [Complex 1a, [Pt(C^N^N^pyr)(C?NR^1)]Cl] | 1.05 ± 0.06 µM | – | ~15% | 4.4 ± 0.6 µM | 1.6 ± 0.4 µM | 1.2 ± 0.1 µM | 3.5 ± 0.8 µM | 0.66 ± 0.04 µM | 1.3 ± 0.1 µM | 6.36 ± 0.15 µM | 6.9 µM | inhibited anchorage-independent colony formation | dose-dependent reductions of red fluorescence
Cc1cccc(C)c1[N+]#[C][Pt-2]12[c]3ccccc3-c3cccc([n+]31)-c1cc[nH][n+]12.O=S(=O)(O)C(F)(F)F (centres unmarked) [Complex 1b] | 0.9 ± 0.17 µM | – | – | 2.8 ± 0.2 µM | 2.1 ± 0.5 µM | 1.2 ± 0.1 µM | 2.8 ± 0.6 µM | 0.42 ± 0.02 µM | 1.7 ± 0.4 µM | 5.23 ± 0.62 µM | – | – | –
CCCC[N+]#[C][Pt-2]12[c]3ccccc3-c3cccc([n+]31)-c1cc[nH][n+]12.[Cl-] (centres unmarked) [Complex 2] | 2.28 ± 0.18 µM | – | – | 5.1 ± 1.1 µM | 5 ± 0.2 µM | 3.3 ± 0.2 µM | 4.4 ± 1 µM | 0.85 ± 0.07 µM | 4 ± 0.8 µM | 8.12 ± 1.27 µM | – | – | dose-dependent reductions of red fluorescence
COc1ccc([N+]#[C][Pt-2]23[c]4ccccc4-c4cccc([n+]42)-c2cc[nH][n+]23)cc1.O=S(=O)(O)C(F)(F)F (centres unmarked) [Complex 3] | 1.98 ± 0.21 µM | – | – | 3.8 ± 0.5 µM | 4.2 ± 1 µM | 2.7 ± 0.1 µM | 3.9 ± 0.7 µM | 2.6 ± 0.2 µM | 2.7 ± 0.2 µM | 9.56 ± 2.15 µM | – | – | –
O=S(=O)(O)C(F)(F)F.[C](#[N+]c1ccc2ccccc2c1)[Pt-2]12[c]3ccccc3-c3cccc([n+]31)-c1cc[nH][n+]12 (centres unmarked) [Complex 4] | 3.52 ± 0.89 µM | – | – | 8.3 ± 0.9 µM | 7.4 ± 0.5 µM | 5 ± 0.2 µM | 7.9 ± 1.3 µM | 3 ± 0.3 µM | 6.2 ± 0.6 µM | 13.5 ± 2.12 µM | – | – | –
COCCOCCOc1ccc([N+]#[C][Pt-2]23[c]4ccccc4-c4cccc([n+]42)-c2cc[nH][n+]23)cc1.O=S(=O)(O)C(F)(F)F (centres unmarked) [Complex 5] | 9.47 ± 1.92 µM | – | – | 14.4 ± 3.5 µM | 8.3 ± 1.6 µM | 11.7 ± 2.1 µM | 12.3 ± 4.2 µM | 6.2 ± 0.5 µM | 9 ± 1.6 µM | 20.2 ± 2.92 µM | – | – | –

Reference: article PMC5707448, “Luminescent platinum(II) complexes with self-assembly and anti-cancer properties: hydrogel, pH dependent emission color and sustained-release properties under physiological conditions” (Chemical Science, 2015)
